Patent publication US10722514B2 (FLX Bio, Inc., priority 2017, dated 2020)

target: T1, recombinant full-length USP7 (Homo sapiens, UniProt Q93009); test: USP7-mediated ubiquitin-rhodamine cleavage assay; assay type: biochemical; settings: recombinant full-length USP7 62 pM; ubiquitin-rhodamine 100 nM; 30-minute incubation with compound, 1 hour reaction at room temperature; read-out: Potency: USP7 IC50
T1 construct: A 25 μl reaction volume containing recombinant full-length USP7 (62 pM)
Summary of the method: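 IC50 values came from fluorescence measured after a 1 h room-temperature reaction of 62 pM enzyme with 100 nM ubiquitin-rhodamine, following 30 min compound preincubation; fits used four parameters.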

T1 sequence (Q93009 whole entry): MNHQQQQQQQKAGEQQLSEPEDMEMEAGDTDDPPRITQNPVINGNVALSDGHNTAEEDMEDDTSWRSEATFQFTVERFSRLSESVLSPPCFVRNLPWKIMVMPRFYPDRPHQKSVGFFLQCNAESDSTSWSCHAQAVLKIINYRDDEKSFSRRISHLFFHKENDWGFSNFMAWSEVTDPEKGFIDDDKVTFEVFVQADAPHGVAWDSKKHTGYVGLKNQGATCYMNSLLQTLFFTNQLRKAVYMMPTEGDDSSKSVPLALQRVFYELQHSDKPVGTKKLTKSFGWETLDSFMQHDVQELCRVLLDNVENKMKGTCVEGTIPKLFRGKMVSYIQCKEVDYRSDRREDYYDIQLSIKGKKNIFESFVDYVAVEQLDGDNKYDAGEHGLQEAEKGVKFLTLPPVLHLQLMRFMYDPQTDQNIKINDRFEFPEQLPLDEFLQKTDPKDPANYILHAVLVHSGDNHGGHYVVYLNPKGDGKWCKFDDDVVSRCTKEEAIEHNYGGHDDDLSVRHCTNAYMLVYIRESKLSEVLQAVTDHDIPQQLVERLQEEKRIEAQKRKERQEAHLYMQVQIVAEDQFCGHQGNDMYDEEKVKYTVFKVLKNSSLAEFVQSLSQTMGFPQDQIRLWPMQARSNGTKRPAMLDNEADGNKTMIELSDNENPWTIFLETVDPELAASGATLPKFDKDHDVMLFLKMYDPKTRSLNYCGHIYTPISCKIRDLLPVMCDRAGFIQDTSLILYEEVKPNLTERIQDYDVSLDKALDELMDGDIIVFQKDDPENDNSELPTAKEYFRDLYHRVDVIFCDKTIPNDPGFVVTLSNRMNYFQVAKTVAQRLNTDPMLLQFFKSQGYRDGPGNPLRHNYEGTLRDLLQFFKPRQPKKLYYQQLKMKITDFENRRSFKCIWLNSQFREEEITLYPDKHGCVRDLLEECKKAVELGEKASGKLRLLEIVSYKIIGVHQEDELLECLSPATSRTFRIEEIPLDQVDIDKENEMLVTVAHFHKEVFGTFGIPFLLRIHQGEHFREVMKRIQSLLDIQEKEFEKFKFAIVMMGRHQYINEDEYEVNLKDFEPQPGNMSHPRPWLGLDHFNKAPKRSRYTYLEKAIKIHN

| IC50 | Compound |
| --- | --- |
| < 1 µM | Cc1cc([N+](=O)[O-])cc(-c2ccnc3cc(Cn4c(=O)ccn(CC(F)(F)F)c4=O)sc23)c1OC1CCN(C(C)(C)C)CC1 [Example 347, 3-[[7-[2-[(1-tert-butyl-4-piperidyl)oxy]-3-methyl-5-nitro-phenyl]thieno[3,2-b]pyridin-2-yl]methyl]-1-(2,2,2-trifluoroethyl)pyrimidine-2,4-dione] |
| < 1 µM | Cc1cc(Cl)cc(-c2ccnc3cc(CN4C(=O)OC(C)(C)C4=O)sc23)c1O[C@@H]1CNC[C@@H]1F [Example 133, 3-((7-(5-Chloro-2-(((3R,4S)-4-fluoropyrrolidin-3-yl)oxy)-3-methylphenyl)thieno[3,2-b]pyridin-2-yl)methyl)-5,5-dimethyloxazolidine-2,4-dione] |
| < 1 µM | Cc1cc(Cl)cc(-c2ncnc3cc(CN4C(=O)CSC4=O)sc23)c1O[C@H]1CCCNC1 [Example 250, (S)-3-((4-(5-Chloro-3-methyl-2-(piperidin-3-yloxy)phenyl)thieno[3,2-d]pyrimidin-6-yl)methyl)thiazolidine-2,4-dione] |
| < 1 µM | CCN1C[C@H]2C[C@@H]1[C@H](Oc1c(C)cc(Cl)cc1-c1ccnc3cc(CN4C(=O)C5C(C4=O)C5(C)C)sc13)C2 (stereo partly drawn) [Example 332, 3-[[7-[5-chloro-2-[[(1S,4R,5R)-3-ethyl-3-azabicyclo[2.2.1]heptan-5-yl]oxy]-3-methyl-phenyl]thieno[3,2-b]pyridin-2-yl]methyl]-6,6-dimethyl-3-azabicyclo[3.1.0]hexane-2,4-dione] |
| < 1 µM | CN[C@@H]1CC[C@@H](Oc2c(C)cc(Cl)cc2-c2ccnc3cc(CN4C(=O)CCC4=O)sc23)C1 [Example 53, 1-((7-(5-Chloro-3-methyl-2-(((1R,3R)-3-(methylamino)cyclopentyl)oxy)phenyl)thieno[3,2-b]pyridin-2-yl)methyl)pyrrolidine-2,5-dione] |
| < 1 µM | Cc1cc(Cl)cc(-c2ccnc3cc(CN4C(=O)C5C(C4=O)C5(C)C)sc23)c1O[C@@H]1CNC[C@@H]1C (stereo partly drawn) [Example 328, 3-[[7-[5-chloro-3-methyl-2-[(3S,4S)-4-methylpyrrolidin-3-yl]oxy-phenyl]thieno[3,2-b]pyridin-2-yl]methyl]-6,6-dimethyl-3-azabicyclo[3.1.0]hexane-2,4-dione] |
| 10 to 30 µM | CCC(O)c1cc2nccc(-c3cc(Cl)cc(C)c3OCC3CCNCC3)c2s1 (stereo not drawn) [Example 204, 1-(7-(5-Chloro-3-methyl-2-(piperidin-4-ylmethoxy)phenyl)thieno[3,2-b]pyridin-2-yl)propan-1-ol] |
| 10 to 30 µM | CCC(O)c1cc2nccc(-c3cccc(C)c3OC3CCNCC3)c2s1 (stereo not drawn) [Example 172, 1-(7-(3-Methyl-2-(piperidin-4-yloxy)phenyl)thieno[3,2-b]pyridin-2-yl)propan-1-ol] |
| < 1 µM | Cc1cc(Cl)cc(-c2ccnc3cc(CN4C(=O)CCCC4=O)sc23)c1O[C@H]1CCCNC1 [Example 237, (S)-1-((7-(5-Chloro-3-methyl-2-(piperidin-3-yloxy)phenyl)thieno[3,2-b]pyridin-2-yl)methyl)piperidine-2,6-dione] |
| 10 to 30 µM | Cc1cc(Cl)cc(-c2ccnc3cc(CO)sc23)c1OC1COC2(CNC2)C1 (stereo not drawn) [Example 40, (7-(2-((5-Oxa-2-azaspiro[3.4]octan-7-yl)oxy)-5-chloro-3-methylphenyl)thieno[3,2-b]pyridin-2-yl)methanol] |
| < 1 µM | O=C1CCC(=O)N1Cc1cc2nccc(-c3cc(C(F)(F)F)cc(Cl)c3O[C@@H]3CNC[C@@H]3F)c2s1 [Example 54, 1-((7-(3-Chloro-2-(((3R,4S)-4-fluoropyrrolidin-3-yl)oxy)-5-(trifluoromethyl)phenyl)thieno[3,2-b]pyridin-2-yl)methyl)pyrrolidine-2,5-dione] |
| < 1 µM | Cc1cc(Cl)cc(-c2ccnc3cc(CN4C(=O)CCC4=O)sc23)c1O[C@H]1C[C@H]2CN[C@@H]1C2 [Example 220, 1-((7-(2-(((1R,4S,6S)-2-azabicyclo[2.2.1]heptan-6-yl)oxy)-5-chloro-3-methylphenyl)thieno[3,2-b]pyridin-2-yl)methyl)pyrrolidine-2,5-dione] |
| < 1 µM | Cc1cc(Cl)cc(-c2ncnc3cc(Cn4c(=O)ccn(C)c4=O)sc23)c1O[C@H]1CCCNC1 [Example 251, (S)-3-((4-(5-Chloro-3-methyl-2-(piperidin-3-yloxy)phenyl)thieno[3,2-d]pyrimidin-6-yl)methyl)-1-methylpyrimidine-2,4(1H,3H)-dione] |
| < 1 µM | Cc1cc(Cl)cc(-c2ncnc3cc(CN4C(=O)C(C)C(C)C4=O)sc23)c1O[C@@H]1CNC[C@@H]1F (stereo partly drawn) [Example 379, 1-[[4-[5-chloro-2-[(3R,4S)-4-fluoropyrrolidin-3-yl]oxy-3-methyl-phenyl]thieno[3,2-d]pyrimidin-6-yl]methyl]-3,4-dimethyl-pyrrolidine-2,5-dione; 2,2,2-trifluoroacetic acid] |

| Compound | IC50 |
| --- | --- |
| Cc1cc(Cl)cc(-c2ccnc3cc(CN4C(=O)CCC4=O)sc23)c1O[C@@H]1C[C@H]2CC[C@@H](C1)N2 [Example 215, 1-((7-(2-(((1R,3s,5S)-8-Azabicyclo[3.2.1]octan-3-yl)oxy)-5-chloro-3-methylphenyl)thieno[3,2-b]pyridin-2-yl)methyl)pyrrolidine-2,5-dione] | < 1 µM |

same assay, conditions: recombinant full-length USP7 62 pM; ubiquitin-rhodamine 100 nM; 30-minute incubation, 1 hour reaction at room temperature; read-out: Potency (USP7 IC50)

| IC50 | Compound |
| --- | --- |
| < 1 µM | Cc1cc(Cl)cc(-c2ccnc3cc(Cn4c(=O)ccn(CC(F)(F)F)c4=O)sc23)c1O[C@@H]1CCN(CC(=O)O)C[C@@H]1C [Example 691, 2-[(3S,4R)-4-[4-chloro-2-[2-[[2,6-dioxo-3-(2,2,2-trifluoroethyl)pyrimidin-1-yl]methyl]thieno[3,2-b]pyridin-7-yl]-6-methyl-phenoxy]-3-methyl-1-piperidyl]acetic acid] |

same assay, conditions: recombinant full-length USP7 62 pM; ubiquitin-rhodamine 100 nM; 30-minute pre-incubation, 1 hour reaction at room temperature; read-out: Potency (USP7 IC50)

| IC50 | Compound |
| --- | --- |
| < 1 µM | CO[C@@H]1CC(=O)N(Cc2cc3nccc(-c4cc(Cl)cc(C)c4O[C@H]4CCCNC4)c3s2)C1=O [Example 481, (3R)-1-[[7-[5-chloro-3-methyl-2-[[(3S)-3-piperidyl]oxy]phenyl]thieno[3,2-b]pyridin-2-yl]methyl]-3-methoxy-pyrrolidine-2,5-dione; 2,2,2-trifluoroacetic acid] |
| < 1 µM | Cc1cc(Cl)cc(-c2ccnc3cc(Cn4c(=O)ccn(CC(F)(F)F)c4=O)sc23)c1O[C@@H]1CNC[C@H]1C [Example 628, 3-[[7-[5-chloro-3-methyl-2-[(3S,4R)-4-methylpyrrolidin-3-yl]oxy-phenyl]thieno[3,2-b]pyridin-2-yl]methyl]-1-(2,2,2-trifluoroethyl)pyrimidine-2,4-dione] |
| < 1 µM | Cc1cc(Cl)cc(-c2ccnc3cc(CN4C(=O)CCC4=O)sc23)c1O[C@@H]1CN[C@@H]2COC[C@@H]21 [Example 430, 1-[[7-[2-[[(3S,3aR,6aS)-2,3,3a,4,6,6a-hexahydro-1H-furo[3,4-b]pyrrol-3-yl]oxy]-5-chloro-3-methyl-phenyl]thieno[3,2-b]pyridin-2-yl]methyl]pyrrolidine-2,5-dione] |
| < 1 µM | Cc1cc(Cl)cc(-c2ccnc3cc(Cn4c(=O)ccn(CC(F)(F)F)c4=O)sc23)c1O[C@@H]1CN(C2CC(C(F)(F)F)C2)C[C@@H]1C (stereo partly drawn) [Example 644, 3-[[7-[5-chloro-3-methyl-2-[(3S,4S)-4-methyl-1-[3-(trifluoromethyl)cyclobutyl]pyrrolidin-3-yl]oxy-phenyl]thieno[3,2-b]pyridin-2-yl]methyl]-1-(2,2,2-trifluoroethyl)pyrimidine-2,4-dione] |
| < 1 µM | Cc1cc(Cl)cc(-c2ccnc3cc(CN4C(=O)CCC4=O)sc23)c1O[C@H]1CCCN(C)C1 [Example 448, 1-[[7-[5-chloro-3-methyl-2-[[(3S)-1-methyl-3-piperidyl]oxy]phenyl]thieno[3,2-b]pyridin-2-yl]methyl]pyrrolidine-2,5-dione] |
| < 1 µM | Cc1cc(Cl)cc(-c2ccnc3cc(CN4C(=O)CN(CC(F)(F)F)C4=O)sc23)c1OC1CCNCC1 [Example 649, 3-[[7-[5-chloro-3-methyl-2-(4-piperidyloxy)phenyl]thieno[3,2-b]pyridin-2-yl]methyl]-1-(2,2,2-trifluoroethyl)imidazolidine-2,4-dione; 2,2,2-trifluoroacetic acid] |
| < 1 µM | Cc1cc(Cl)cc(-c2ccnc3cc(Cn4c(=O)c(F)cn(C(C)C)c4=O)sc23)c1O[C@@H]1CCNC[C@@H]1C [Example 550, 3-[[7-[5-chloro-3-methyl-2-[[(3S,4R)-3-methyl-4-piperidyl]oxy]phenyl]thieno[3,2-b]pyridin-2-yl]methyl]-5-fluoro-1-isopropyl-pyrimidine-2,4-dione] |
| < 1 µM | Cc1cc(Cl)cc(-c2ccnc3cc(CN4C(=O)CCC4=O)sc23)c1O[C@@H]1CNCC[C@H]1C [Example 415, 1-[[7-[5-chloro-3-methyl-2-[[(3S,4R)-4-methyl-3-piperidyl]oxy]phenyl]thieno[3,2-b]pyridin-2-yl]methyl]pyrrolidine-2,5-dione] |
| < 1 µM | Cc1cc(Cl)cc(-c2ncnc3cc(Cn4c(=O)ccn(C(C)C)c4=O)sc23)c1O[C@H]1CCCNC1 [Example 489, 3-[[4-[5-chloro-3-methyl-2-[[(3S)-3-piperidyl]oxy]phenyl]thieno[3,2-d]pyrimidin-6-yl]methyl]-1-isopropyl-pyrimidine-2,4-dione] |

| Compound | IC50 |
| --- | --- |
| 3-[[7-[5-chloro-2-[2-(3-hydroxyazetidin-1-yl)ethoxy]-3-methyl-phenyl]thieno[3,2- [Example 667] | < 1 µM |
| Cc1cc(Cl)cc(-c2ccnc3cc(Cn4c(=O)ccn(CC(F)(F)F)c4=O)sc23)c1O[C@H]1CC[C@H](N)C1 [Example 596, 3-[[7-[2-[(1S,3S)-3-aminocyclopentoxy]-5-chloro-3-methyl-phenyl]thieno[3,2-b]pyridin-2-yl]methyl]-1-(2,2,2-trifluoroethyl)pyrimidine-2,4-dione; 2,2,2-trifluoroacetic acid] | < 1 µM |
